Measured values taken from ChEMBL document CHEMBL2429721, “Novel 2,6-bis(4-methoxyphenyl)-1-methylpiperidin-4-one oxime esters: synthesis and a new insight into their antioxidant and antimicrobial potential” (Med Chem Res, 2013).

What was measured:
Type in all cases: functional
[1] = tested on: Radical scavenging activity; assay: Antioxidant activity assessed as DPPH free radical scavenging activity after 20 mins by UV-visible spectrophotometric analysis
Candida albicans [2] = assay: Antifungal activity against Candida albicans MTCC 3017 assessed as growth inhibition at 1000 ug/mL after 72 hrs by agar well plate method; conditions: MTCC 3017, 72 h, read-out: DIZ
Pseudomonas aeruginosa [3] = assay: Antibacterial activity against Pseudomonas aeruginosa ATCC 27853 assessed as growth inhibition at 500 ug/mL after 24 hrs by agar well plate method; conditions: ATCC 27853, 24 h, read-out: DIZ
[4] = Antifungal activity against Chrysosporium keratinophilum MTCC 2827 assessed as growth inhibition at 1000 ug/mL after 72 hrs by agar well plate method
Candida albicans [5] = assay: Antifungal activity against Candida albicans MTCC 3017 assessed as growth inhibition at 500 ug/mL after 72 hrs by agar well plate method; conditions: MTCC 3017, 72 h, read-out: DIZ
[6] = Antioxidant activity assessed as ABTS free radical scavenging activity after 30 mins
Staphylococcus aureus [7] = assay: Antibacterial activity against Staphylococcus aureus ATCC 25923 assessed as growth inhibition at 500 ug/mL after 24 hrs by agar well plate method; conditions: ATCC 25923, 24 h, read-out: DIZ
Aspergillus flavus [8] = assay: Antifungal activity against Aspergillus flavus MTCC 3306 assessed as growth inhibition at 1000 ug/mL after 72 hrs by agar well plate method; conditions: MTCC 3306, 72 h, read-out: DIZ
Staphylococcus aureus [9] = assay: Antibacterial activity against Staphylococcus aureus ATCC 25923 assessed as growth inhibition at 1000 ug/mL after 24 hrs by agar well plate method; conditions: ATCC 25923, 24 h, read-out: DIZ
[10] = Antioxidant activity assessed as cupric ion reducing activity at 10 uM after 30 mins by CUPRAC assay
Pseudomonas aeruginosa [11] = assay: Antibacterial activity against Pseudomonas aeruginosa ATCC 27853 assessed as growth inhibition at 1000 ug/mL after 24 hrs by agar well plate method; conditions: ATCC 27853, 24 h, read-out: DIZ
[12] = Antioxidant activity assessed as ferric ion reducing activity at 10 uM after 20 mins by FRAP assay
Aspergillus flavus [13] = assay: Antifungal activity against Aspergillus flavus MTCC 3306 assessed as growth inhibition at 500 ug/mL after 72 hrs by agar well plate method; conditions: MTCC 3306, 72 h, read-out: DIZ
[14] = Antifungal activity against Chrysosporium keratinophilum MTCC 2827 assessed as growth inhibition at 500 ug/mL after 72 hrs by agar well plate method
Escherichia coli [15] = assay: Antibacterial activity against Escherichia coli ATCC 25922 assessed as growth inhibition at 500 ug/mL after 24 hrs by agar well plate method; conditions: ATCC 25922, 24 h, read-out: DIZ
Escherichia coli [16] = assay: Antibacterial activity against Escherichia coli ATCC 25922 assessed as growth inhibition at 1000 ug/mL after 24 hrs by agar well plate method; conditions: ATCC 25922, 24 h, read-out: DIZ

Compound	IC50 [1]	zone of inhibition at 1000 µg/mL (Candida albicans [2])	zone of inhibition at 500 µg/mL (Pseudomonas aeruginosa [3])	inhibition zone (IZ) [4]	zone of inhibition at 500 µg/mL (Candida albicans [5])	IC50 [6]	zone of inhibition at 500 µg/mL (Staphylococcus aureus [7])	zone of inhibition at 1000 µg/mL (Aspergillus flavus [8])	zone of inhibition at 1000 µg/mL (Staphylococcus aureus [9])	Activity [10]	zone of inhibition at 1000 µg/mL (Pseudomonas aeruginosa [11])	Activity [12]	zone of inhibition at 500 µg/mL (Aspergillus flavus [13])	inhibition zone (IZ) [14]	zone of inhibition at 500 µg/mL (Escherichia coli [15])	zone of inhibition at 1000 µg/mL (Escherichia coli [16])
COc1ccc(C2CC(=NOC(=O)c3cc([N+](=O)[O-])cc([N+](=O)[O-])c3)CC(c3ccc(OC)cc3)N2C)cc1 (stereo not given)	125 µM	8 mm	6 mm	5 mm	3 mm	312 µM	3 mm	4 mm	6 mm	0.145	9 mm	0.195	3 mm	5 mm	4 mm	9 mm
COc1ccc(C2CC(=NO)CC(c3ccc(OC)cc3)N2C)cc1 (stereo not given)	165 µM	1 mm	0 mm	1 mm	1 mm	380 µM	0 mm	1 mm	1 mm	0.164	1 mm	0.127	0 mm	1 mm	0 mm	1 mm
COc1ccc(C2CC(=NOC(=O)c3ccc(Br)cc3)CC(c3ccc(OC)cc3)N2C)cc1 (stereo not given)	92 µM	9 mm	7 mm	6 mm	8 mm	121 µM	6 mm	5 mm	8 mm	0.215	9 mm	0.265	4 mm	4 mm	6 mm	10 mm
COc1ccc(C2CC(=NOC(=O)c3ccccc3O)CC(c3ccc(OC)cc3)N2C)cc1 (stereo not given)	19 µM	6 mm	3 mm	5 mm	2 mm	29 µM	4 mm	3 mm	4 mm	0.272	4 mm	0.33	2 mm	3 mm	3 mm	5 mm
COc1ccc(C2CC(=NOC(=O)c3cc(O)c(O)c(O)c3)CC(c3ccc(OC)cc3)N2C)cc1 (stereo not given)	11 µM	8 mm	3 mm	3 mm	6 mm	18 µM	3 mm	3 mm	5 mm	0.361	4 mm	0.373	1 mm	2 mm	4 mm	6 mm
